Test results as given in publication PMC5415745, “Drug-transporter mediated interactions between anthelminthic and antiretroviral drugs across the Caco-2 cell monolayers” (BMC Pharmacology & Toxicology, 2017).
Values joined by “and” are separate entries in the source; they are usually repeats but may differ in a detail not shown here. Equal entries are not always repeated.

Columns and labels:
[1] = Bidirectional (AP→BL, BL→AP) drug transport across Caco-2 cell monolayers in transwells: cumulative transport, Papp, efflux ratio; HPLC or radiolabeled assay; conditions: human
Caco-2 cell monolayers = experiment: as above; conditions: for Effect on the transport of IVM / Effect on the transport of PZQ: labelled drug is the interacting drug
[2] = cited from earlier work
[3] = Caco-2, Papp AP → BL, mean (n=3) after 60 min, drug A alone, or label 'A + B' = transport of A in presence of interacting drug B, concentrations per Table 1
[4] = Caco-2, Papp BL → AP, mean (n=3) after 60 min, drug A alone, or label 'A + B' = transport of A in presence of interacting drug B, concentrations per Table 1
[5] = [3H] LPV alone, 60 min, individual experiments 1-3
[6] = [3H] LPV alone, 60 min, mean, n=3
[7] = [3H] LPV alone, 120 min, individual experiments 1-3
[8] = [3H] LPV alone, 120 min, mean, n=3
[9] = [3H] LPV alone, 180 min, individual experiments 1-3
[10] = [3H] LPV alone, 180 min, mean, n=3
[11] = [3H] LPV alone, 240 min, individual experiments 1-3
[12] = [3H] LPV alone, 240 min, mean, n=3
[13] = [3H] LPV alone, after 60 min, samples 1-3
[14] = [3H] NVP alone, 60 min, individual experiments 1-3
[15] = [3H] NVP alone, 60 min, mean, n=3
[16] = [3H] NVP alone, 120 min, individual experiments 1-3
[17] = [3H] NVP alone, 120 min, mean, n=3
[18] = [3H] NVP alone, 180 min, individual experiments 1-3
[19] = [3H] NVP alone, 180 min, mean, n=3
[20] = [3H] NVP alone, 240 min, individual experiments 1-3
[21] = [3H] NVP alone, 240 min, mean, n=3
[22] = [3H] NVP alone, after 60 min, samples 1-3
[23] = SQV alone (PZQ experiment), 60 min, mean
[24] = SQV alone (PZQ experiment), 60 min, samples 1-3
[25] = SQV alone (PZQ experiment), 120 min, mean
[26] = SQV alone (PZQ experiment), 120 min, samples 1-3
[27] = SQV alone (PZQ experiment), 180 min, mean
[28] = SQV alone (PZQ experiment), 180 min, samples 1-3
[29] = SQV alone (PZQ experiment), 240 min, mean
[30] = SQV alone (PZQ experiment), 240 min, samples 1-3
[31] = SQV alone (PZQ experiment), after 60min, mean
[32] = SQV alone, 60 min, individual experiments 1-3
[33] = SQV alone, 180 min, individual experiments 1-3
[34] = SQV alone, 240 min, individual experiments 1-3
[35] = SQV alone, after 60 min, samples 1-3

Molecule `Cc1cccc(C)c1OCC(=O)N[C@@H](Cc1ccccc1)[C@@H](O)C[C@H](Cc1ccccc1)NC(=O)[C@H](C(C)C)N1CCCNC1=O` [LPV, lopinavir] has a Papp A→B at 60 min [1, 3] of 4.8 ×10⁻⁶ cm/s, a Papp B→A at 60 min [1, 4] of 32.1 ×10⁻⁶ cm/s and a Papp A→B at 60 min ([1]; Caco-2, PappAB Papp, [3H] LPV alone, after 60 min, samples 1-3) of 5.95 ×10⁻⁶ cm/s. The Papp B→A at 60 min ([1]; Caco-2, PappBA Papp, [3H] LPV alone, after 60 min, samples 1-3) was 36.3 ×10⁻⁶ cm/s, the “Apical to basal transport” value (Caco-2 cell monolayers; [5]) was 0.92 pmol and 0.73 pmol and 0.68 pmol and the “Basal to apical transport” value (Caco-2 cell monolayers; [5]) was 4.42 pmol and 4.44 pmol and 5.33 pmol. For the same molecule, the “Apical to basal transport Mean” value (Caco-2 cell monolayers; [6]) was 0.78 pmol, the “Basal to apical transport Mean” value (Caco-2 cell monolayers; [6]) was 4.73 pmol and the “Apical to basal transport” value (Caco-2 cell monolayers; [7]) was 1.24 pmol and 1.79 pmol and 1.27 pmol. For the same molecule, the “Basal to apical transport” value (Caco-2 cell monolayers; [7]) was 7.38 pmol and 6.91 pmol and 8.43 pmol, the “Apical to basal transport Mean” value (Caco-2 cell monolayers; [8]) was 1.43 pmol and the “Basal to apical transport Mean” value (Caco-2 cell monolayers; [8]) was 7.57 pmol. For the same molecule, the “Apical to basal transport” value (Caco-2 cell monolayers; [9]) was 1.93 pmol and 2.34 pmol and 1.52 pmol, the “Basal to apical transport” value (Caco-2 cell monolayers; [9]) was 9.01 pmol and 8.46 pmol and 10.62 pmol and the “Apical to basal transport Mean” value (Caco-2 cell monolayers; [10]) was 1.93 pmol. For the same molecule, the “Basal to apical transport Mean” value (Caco-2 cell monolayers; [10]) was 9.36 pmol, the “Apical to basal transport” value (Caco-2 cell monolayers; [11]) was 2.15 pmol and 2.71 pmol and 1.78 pmol and the “Basal to apical transport” value (Caco-2 cell monolayers; [11]) was 11.97 pmol and 11.41 pmol and 12.04 pmol. For the same molecule, the “Apical to basal transport Mean” value (Caco-2 cell monolayers; [12]) was 2.21 pmol, the “Basal to apical transport Mean” value (Caco-2 cell monolayers; [12]) was 11.81 pmol and the “PappBA Mean” value (Caco-2 cell monolayers; [3H] LPV alone, after 60 min, mean, n=3) was 32.09 10^9 cm/s. The “Apical to basal transport Conc. Apical” value (Caco-2 cell monolayers; [13]) was 18.43 pmol and 19.89 pmol, the “Basal to apical transport Conc. Basal” value (Caco-2 cell monolayers; [13]) was 14.48 pmol and 17.27 pmol and 21.60 pmol and the “Effect on the transport of IVM” value (Caco-2 cell monolayers) was “twofold decrease in the efflux ratio”.
For `Cc1ccnc2c1NC(=O)c1cccnc1N2C1CC1` [NVP, nevirapine], the efflux ratio at 60 min ([1]; Caco-2, Efflux ratio ER, [3H] NVP alone, after 60 min, samples 1-3) was 1.03, the Papp A→B at 60 min [1, 3] was 42.7 ×10⁻⁶ cm/s and the Papp B→A at 60 min [1, 4] was 39.5 ×10⁻⁶ cm/s. For the same molecule, the Papp A→B at 60 min ([1]; Caco-2, PappAB Papp, [3H] NVP alone, after 60 min, samples 1-3) was 52.9 ×10⁻⁶ cm/s, the Papp B→A at 60 min ([1]; Caco-2, PappBA Papp, [3H] NVP alone, after 60 min, samples 1-3) was 54.7 ×10⁻⁶ cm/s and the “Apical to basal transport” value (Caco-2 cell monolayers; [14]) was 78.8 pmol and 80.8 pmol and 79.4 pmol. The “Basal to apical transport” value (Caco-2 cell monolayers; [14]) was 59.7 pmol and 67.9 pmol and 77.2 pmol, the “Apical to basal transport Mean” value (Caco-2 cell monolayers; [15]) was 79.68 pmol and the “Basal to apical transport Mean” value (Caco-2 cell monolayers; [15]) was 68.27 pmol. The “Apical to basal transport” value (Caco-2 cell monolayers; [16]) was 111.5 pmol and 123.2 pmol and 109.9 pmol, the “Basal to apical transport” value (Caco-2 cell monolayers; [16]) was 81.9 pmol and 91.5 pmol and 105.1 pmol and the “Apical to basal transport Mean” value (Caco-2 cell monolayers; [17]) was 114.88 pmol. The “Basal to apical transport Mean” value (Caco-2 cell monolayers; [17]) was 92.84 pmol, the “Apical to basal transport” value (Caco-2 cell monolayers; [18]) was 116.3 pmol and 120.3 pmol and 122.0 pmol and the “Basal to apical transport” value (Caco-2 cell monolayers; [18]) was 92.9 pmol and 107.5 pmol and 118.9 pmol. For the same molecule, the “Apical to basal transport Mean” value (Caco-2 cell monolayers; [19]) was 119.53 pmol, the “Basal to apical transport Mean” value (Caco-2 cell monolayers; [19]) was 106.41 pmol and the “Apical to basal transport” value (Caco-2 cell monolayers; [20]) was 123.9 pmol and 122.5 pmol and 120.2 pmol. For the same molecule, the “Basal to apical transport” value (Caco-2 cell monolayers; [20]) was 98.8 pmol and 112.2 pmol and 132.2 pmol, the “Apical to basal transport Mean” value (Caco-2 cell monolayers; [21]) was 122.19 pmol and the “Basal to apical transport Mean” value (Caco-2 cell monolayers; [21]) was 114.39 pmol. For the same molecule, the “Apical to basal transport Conc. Apical” value (Caco-2 cell monolayers; [22]) was 177.1 pmol and 196.6 pmol and 189.3 pmol, the “Basal to apical transport Conc. Basal” value (Caco-2 cell monolayers; [22]) was 129.9 pmol and 207.3 pmol and 202.9 pmol and the “Efflux ratio ER” value (Caco-2 cell monolayers; [22]) was 0.80. The PappAB Papp (Caco-2 cell monolayers; [22]) was 40.3 ×10⁻⁶ cm/s and 34.9 ×10⁻⁶ cm/s, the PappBA Papp (Caco-2 cell monolayers; [22]) was 32.1 ×10⁻⁶ cm/s and 31.7 ×10⁻⁶ cm/s and the “Effect on the transport of IVM” value (Caco-2 cell monolayers) was “increased”. For the same molecule, the “Effect on the transport of PZQ” value (Caco-2 cell monolayers) was “did not affect”.
In the case of `CC(C)(C)NC(=O)[C@@H]1C[C@@H]2CCCC[C@@H]2CN1C[C@@H](O)[C@H](Cc1ccccc1)NC(=O)[C@H](CC(N)=O)NC(=O)c1ccc2ccccc2n1` [SQV, saquinavir], the “Log Kow” value [2] is listed as 2.5, the Papp A→B at 60 min [1, 3] is listed as 6.9 ×10⁻⁶ cm/s and the Papp B→A at 60 min [1, 4] is listed as 21.1 ×10⁻⁶ cm/s. For the same molecule, the Papp A→B at 60 min ([1]; Caco-2, PappAB Papp, SQV alone, after 60 min, samples 1-3) was 7.01 ×10⁻⁶ cm/s, the Papp B→A at 60 min ([1]; Caco-2, PappBA Papp, SQV alone, after 60 min, samples 1-3) was 25.1 ×10⁻⁶ cm/s and the “Apical to basal transport Mean” value (Caco-2 cell monolayers; [23]) was 3.18 pmol. For the same molecule, the “Basal to apical transport Mean” value (Caco-2 cell monolayers; [23]) was 6.29 pmol, the “Apical to basal transport” value (Caco-2 cell monolayers; [24]) was 3.93 pmol and 2.52 pmol and 3.10 pmol and the “Basal to apical transport” value (Caco-2 cell monolayers; [24]) was 5.98 pmol and 5.60 pmol and 7.29 pmol. The “Apical to basal transport Mean” value (Caco-2 cell monolayers; [25]) was 4.32 pmol, the “Basal to apical transport Mean” value (Caco-2 cell monolayers; [25]) was 11.52 pmol and the “Apical to basal transport” value (Caco-2 cell monolayers; [26]) was 4.59 pmol and 4.09 pmol and 4.29 pmol. For the same molecule, the “Basal to apical transport” value (Caco-2 cell monolayers; [26]) was 10.77 pmol and 11.26 pmol and 12.52 pmol, the “Apical to basal transport Mean” value (Caco-2 cell monolayers; [27]) was 5.73 pmol and the “Basal to apical transport Mean” value (Caco-2 cell monolayers; [27]) was 16.09 pmol. The “Apical to basal transport” value (Caco-2 cell monolayers; [28]) was 5.76 pmol and 5.30 pmol and 6.14 pmol, the “Basal to apical transport” value (Caco-2 cell monolayers; [28]) was 16.14 pmol and 16.78 pmol and 15.35 pmol and the “Apical to basal transport Mean” value (Caco-2 cell monolayers; [29]) was 6.40 pmol. The “Basal to apical transport Mean” value (Caco-2 cell monolayers; [29]) was 20.56 pmol, the “Apical to basal transport” value (Caco-2 cell monolayers; [30]) was 6.59 pmol and 5.67 pmol and 6.93 pmol and the “Basal to apical transport” value (Caco-2 cell monolayers; [30]) was 18.19 pmol and 23.27 pmol. The PappAB Mean (Caco-2 cell monolayers; [31]) was 6.56 ×10⁻⁶ cm/s, the PappBA Mean (Caco-2 cell monolayers; [31]) was 10.8 ×10⁻⁶ cm/s and the “Apical to basal transport” value (Caco-2 cell monolayers; [32]) was 2.74 pmol and 2.54 pmol and 3.32 pmol. For the same molecule, the “Basal to apical transport” value (Caco-2 cell monolayers; [32]) was 8.18 pmol and 6.66 pmol and 9.42 pmol, the “Apical to basal transport Mean” value (Caco-2 cell monolayers; SQV alone, 60 min, mean, n=3) was 2.87 pmol and the “Basal to apical transport Mean” value (Caco-2 cell monolayers; SQV alone, 60 min, mean, n=3) was 8.09 pmol. For the same molecule, the “Apical to basal transport Mean” value (Caco-2 cell monolayers; SQV alone, 120 min, mean, n=3) was 5.52 pmol, the “Basal to apical transport Mean” value (Caco-2 cell monolayers; SQV alone, 120 min, mean, n=3) was 14.27 pmol and the “Apical to basal transport” value (Caco-2 cell monolayers; [33]) was 7.42 pmol and 7.24 pmol and 8.40 pmol. The “Basal to apical transport” value (Caco-2 cell monolayers; [33]) was 18.6 pmol and 17.14 pmol and 18.78 pmol, the “Apical to basal transport Mean” value (Caco-2 cell monolayers; SQV alone, 180 min, mean, n=3) was 7.69 pmol and the “Basal to apical transport Mean” value (Caco-2 cell monolayers; SQV alone, 180 min, mean, n=3) was 18.17 pmol. For the same molecule, the “Apical to basal transport” value (Caco-2 cell monolayers; [34]) was 9.18 pmol and 8.8 pmol, the “Basal to apical transport” value (Caco-2 cell monolayers; [34]) was 21.42 pmol and 26.66 pmol and the “Apical to basal transport Mean” value (Caco-2 cell monolayers; SQV alone, 240 min, mean, n=3) was 9.74 pmol. The “Basal to apical transport Mean” value (Caco-2 cell monolayers; SQV alone, 240 min, mean, n=3) was 23.51 pmol, the “Apical to basal transport Conc. Apical” value (Caco-2 cell monolayers; [35]) was 23.25 pmol and 22.93 pmol and the “Basal to apical transport Conc. Basal” value (Caco-2 cell monolayers; [35]) was 19.35 pmol and 21.54 pmol and 28.21 pmol. The PappAB Papp (Caco-2 cell monolayers; [35]) was 6.59 ×10⁻⁶ cm/s and 7.13 ×10⁻⁶ cm/s, the PappBA Papp (Caco-2 cell monolayers; [35]) was 18.4 ×10⁻⁶ cm/s and 19.9 ×10⁻⁶ cm/s and the “Effect on the transport of PZQ” value (Caco-2 cell monolayers) was “did not affect”. It also gave a Papp AP → BL (Caco-2 cell monolayers; mean (n=3) after 60 min, drug A alone, or label 'A + B' = transport of A in presence of interacting drug B, concentrations per Table 1) of 6.6 ×10⁻⁶ cm/s.
